In patent US20190169218A1, “AMPHIPATHIC COMPOUND HAVING NOVEL PENTA-SACCHARIDE HYDROPHILIC GROUP AND USE THEREOF” (Industry-University Cooperation Foundation Hanyang …, priority 2016, published 2019):

How the values were obtained:
[1] = target: T1, boron transporter (BOR1) BOR1-GFP fusion protein (Arabidopsis thaliana, UniProt Q8VYR7); assay: solubilization (extraction) of BOR1-GFP fusion protein from membranes; details: amphipathic compound at 1.0 wt %
T1 construct: made in house; host or cells: Saccharomyces cerevisiae FGY217
Procedure: The ability of PSAs and PSEs to solubilize membrane proteins and to stabilize the structures of membrane proteins was evaluated using boron transporter (BOR1), a membrane protein. BOR1 was isolated from Arabidopsis thaliana, and was expressed in the form of a fusion protein having a GFP tag at the C-terminus in Saccharomyces cerevisiae FGY217 cells. This fusion protein has been proven to have boron transporting activity and is therefore involved in both structural and functional analysis of membrane proteins.
The ability of amphipathic compound PSAs and PSEs to solubilize the boron transporter (BOR1) membrane protein was evaluated.
Specifically, membranes containing BOR1-GFP fusion proteins were treated with an existing amphipathic compound (DDM), PSAs (PSA-C9, PSA-C10 and PSA-C11), or PSEs (PSE-C9, PSE-C11 and PSE-C13) at a concentration of 1.0 wt %. The solubilization efficiencies of PSA-C9, PSA-C10 and PSE-C9 were about 80% similar to the solubilization efficiency of DDM. In particular, the BOR1-GFP protein was quantitatively extracted (˜100%) using PSE-C11 having medium length chains, thus confirming that PSE-C11 is particularly useful for solubilization of BOR1-GFP.
Specifically, Arabidopsis thaliana-derived BOR1 was expressed in the form of a fusion protein having a GFP tag at the C-terminus in Saccharomyces cerevisiae FGY217 cells. The cells were grown in an URA-medium supplemented with 0.1% glucose. 2% galactose was added to the cell culture to induce protein expression and the cells were cultured at 20° C. for 18 hours (see Drew, D. et al., Nat. Protoc. 2008, 3, 784-798.). After culture, the cells were harvested and used to obtain the cell membranes (see Leung, J. et al., Protein Expr. Purif. 2010, 72, 139-146.). Membranes containing BOR1-GFP fusion proteins were diluted to a final total protein concentration of 2.8 mg/mL in PBS (pH7.4) supplemented with 1 wt % DDM, 1 wt % PSAs (PSA-C9, PSA-C10 or PSA-C11) or 1 wt % PSEs (PSE-C9, PSE-C11 or PSE-C13). The diluted samples were incubated at 4° C. for 1 hour with gentle shaking, and insoluble substances were removed by centrifugation at 14,000 g for 1 hour at 4° C. Supernatants containing the dissolved protein samples were incubated for 10 minutes at the specified temperature (35, 40, 45 or 50° C.), and strongly agglutinated proteins were removed by centrifugation at 14,000 g for 10 minutes at 4° C. 200 μL aliquots were taken from the supernatant and injected into a Superose 6 10/300 column equilibrated with 20 mM Tris-HCl (pH 7.5), 150 mM NaCl and 0.03% DDM. Each elution fraction was collected from a retention volume of 6.4 mL (i.e., after 6.4 mL of solution had passed), and added to a well of a clear bottom 96-well plate at a volume of 200 μL. GFP fluorescence generated in each fraction was measured using an excitation wavelength of 470 nm and an emission wavelength of 512 nm.

[2] = target: T2, human β2 adrenergic receptor (β2AR) (Homo sapiens, UniProt P07550); assay: extraction and solubilization of β2AR directly from cell membranes ([3H]-DHA activity, SEC); details: for SEC peak of extracted β2AR: buffer not containing amphipathic compounds
T2 construct: Flag; made in house
T2 sequence (P07550 whole entry): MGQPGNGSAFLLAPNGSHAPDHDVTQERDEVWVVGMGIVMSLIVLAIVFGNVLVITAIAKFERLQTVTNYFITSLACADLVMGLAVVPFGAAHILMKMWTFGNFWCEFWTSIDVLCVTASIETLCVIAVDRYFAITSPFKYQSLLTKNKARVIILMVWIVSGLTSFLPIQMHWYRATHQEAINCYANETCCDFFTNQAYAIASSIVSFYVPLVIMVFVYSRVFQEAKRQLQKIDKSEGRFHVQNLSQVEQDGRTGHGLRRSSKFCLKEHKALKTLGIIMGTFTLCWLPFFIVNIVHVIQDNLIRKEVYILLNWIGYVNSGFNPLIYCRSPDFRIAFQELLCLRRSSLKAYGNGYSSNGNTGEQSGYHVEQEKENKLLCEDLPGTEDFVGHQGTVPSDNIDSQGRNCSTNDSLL
Procedure: The best, PSE-C11, among tested PSAs/PSEs was used to extract β2ARs directly from the cell membranes. Receptors were treated with 1.0 wt % PSE-C11 or DDM, and the activity of the receptors solubilized in PSE-C11 or DDM was measured using a radiolabeled ligand, [^3H]-DHA.
Specifically, experiments to extract and solubilize receptors from the cell membranes were performed as follows. 10 mL of a PSE-C11 amphipathic compound buffer (20 mM HEPES (pH 7.5), 100 mM NaCl, 1.0 wt % PSE-C11) was added to 1 g of an insect cell (Sf9) pellet expressing β2ARs. The mixture was stirred for solubilization for 1 hour. After performing centrifugation at 12,000 g for 20 minutes, a supernatant was collected and loaded onto a M1 Flag column in the presence of 2 mM CaCl2. The column was washed with a PSE-C11 buffer (20 mM HEPES (pH 7.5), 100 mM NaCl, 0.2 wt % amphipathic compound). Receptors were eluted with 20×CMC PSE-C11, 5 mM EDTA and 0.2 mg/mL free Flag peptides. To measure the activity of the receptors solubilized and purified by DDM or PSE-C11, 0.2 pmol of β2ARs was incubated with […] [^3H]-DHA and each amphipathic compound at room temperature for 30 minutes, and the activity of β2ARs was measured. The following procedure was performed in the same manner as described in Example 9-3. Each measurement was performed three times. The receptors solubilized in 20×CMC PSE-C11 or 20×CMC DDM were also applied to SEC under a buffer (20 mM HEPES (pH 7.5), 100 mM NaCl) not containing an amphipathic compound (PSE-C11 or DDM).

`CCCCCCCCCCCOCC(COCCCCCCCCCCC)O[C@@H]1OC(CO[C@@H]2OC(CO)[C@@H](O)C(O)C2O)[C@@H](O[C@@H]2OC(CO)[C@@H](O)C(O)C2O)C(O[C@@H]2OC(CO)[C@@H](O)C(O)C2O)C1O[C@@H]1OC(CO)[C@@H](O)C(O)C1O` (some centres unmarked) [PSE-C11] was tested, and the “solubilization efficiency of BOR1-GFP” value [1] was about 100%, the “activity of β2AR extracted from cell membranes ([3H]-DHA)” value ([2]; 1.0 wt % PSE-C11 or DDM) was “higher activity than proteins extracted by DDM” and the “SEC peak of extracted β2AR” value [2] was “a distinct monodisperse peak”.

`CCCCCCCCCCCCO[C@@H]1O[C@H](CO)[C@@H](O[C@H]2O[C@H](CO)[C@@H](O)[C@H](O)[C@H]2O)[C@H](O)[C@H]1O` [DDM, n-dodecyl-β-D-maltopyranoside, reference compound] was tested, and the “solubilization efficiency of BOR1-GFP” value [1] was “about 80%” and the “SEC peak of extracted β2AR” value [2] was “no peak corresponding to the proteins was observed”.
